Structures can show the parent of a compound that is named as a salt.
Columns and labels:
[1] = test system: serum level of PTH (1-34+1-84); assay: PTH measurement on intact rats (serum PTH by IRMA after oral administration); assay type: in vivo, rat; conditions: for inhibition in vivo at 30 mg/kg: Rattus norvegicus, 0.5 h, oral, male Sprague-Dawley rats fasted 16 h, serum 30 min after dosing, read-out: % PTH reduction at 30 min. relative to the untreated group (intact rat)
Protocol: I—PTH Measurement on Intact Rats
After fasting for 16 hours, some male rats (Sprague-Dawley, 250-300 g, Charles River France or CERJ) received an oral administration of the compounds to be tested or their vehicle. 30 min. after this bolus, the animals were slaughtered by decapitation using a guillotine. The arterial and venous blood was collected at 4° C. and centrifuged cold, then the sera were frozen at −20° C. After thawing, the serum level of PTH (1-34+1-84) was measured by a radioimmunology test (IRMA kit, rat, Immutopics).

[2] = test system: serum level of PTH (1-34+1-84); assay: PTH measurement in rats with chronic renal failure (5/6 nephrectomy); assay type: in vivo, rat; conditions: oral, dose 10 mg/kg, 5/6 nephrectomised rats, ten days after nephrectomy, fasted 16 h, serum 30 min after dosing
Excerpt: II—Rats with Chronic Renal Failure
Chronic renal failure (CRF) was induced in male rats (220-250 g, Sprague-Dawley, CERJ) by ablation of ⅚ of the total renal mass. After anaesthesia (Imalgene 1000), the rats were subjected to exeresis of the right kidney and ablation of both ends of the left kidney, representing approximately ⅔ of the organ).
The incision was cauterised by application of dry ice. To compensate for the loss of blood volume, the animals received an intravenous injection of physiological serum. Two days after the procedure and for the remainder of the trial, the rats were fed with a standard diet (UAR or Safe) and drank phosphate-enriched (1.2%) Volvic® water at will. The procedure was carried out either at the supplier's or at the laboratory. Ten days after nephrectomy, the animals which had been fasting for 16 hours entered the trial. The compounds to be tested or their vehicle were administered orally 30 min. prior to sacrifice. The arterial and venous blood was at 4° C. after decapitation using a guillotine and was centrifuged cold. The sera were frozen a −20° C. After thawing, the serum level of PTH (1-34+1-84) was measured by a radioimmunology test (IRMA kit, rat, Immutopics).

Row | Structure (SMILES) | inhibition in vivo at 30 mg/kg [1] [%] | % PTH reduction at 30 min. relative to the untreated group (CRF rat) [2] [%] | PTH level reduced relative to the control group ([1]; oral administration, dose of 30 mg/kg, intact rats, 30 min) [%]
1 | CC(C)(C)OC(=O)c1cccc(NC(=O)N(CCC(c2ccccc2)c2ccccc2)CCN2CCOCC2)c1 [Example 40, 3-[3-(3,3-diphenylpropyl)-3-(2-morpholin-4-ylethyl)ureido]benzoic acid tertbutyl ester hydrochloride] | 21 |  | 
2 | CC(C)OC(=O)c1cccc(NC(=O)N(CCC(c2ccccc2)c2ccccc2)CCN2CCOCC2)c1 [Example 48, 3-[3-(3,3-diphenylpropyl)-3-(2-morpholin-4-ylethyl)ureido]benzoic acid isopropyl ester hydrochloride] | 32 |  | 
3 | Cn1nnc(-c2cccc(NC(=O)N(CCC(c3ccccc3)c3ccccc3)CCN3CCOCC3)c2)n1 (single isomer, unassigned) [Example 85, 1-(3,3-diphenylpropyl)-3-[3-(2-methyl-2H-tetrazol-5-yl)phenyl]-1-(2-morpholin-4-ylethyl)urea] | 88 | 70 | 
4 | COC(=O)c1cccc(NC(=O)N(CCC(c2ccccc2)c2ccccc2)CCN2CCOCC2)c1 [Example 1, 3-[3-(3,3-diphenylpropyl)-3-(2-morpholin-4-ylethyl)ureido]benzoic acid methyl ester] | 56 |  | 
5 | O=C(Nc1ccc(Cl)c(C(F)(F)F)c1)N(CCC(c1ccccc1)c1ccccc1)CCN1CCOCC1 [Example 43, 3-(4-chloro-3-trifluoromethylphenyl)-1-(3,3-diphenylpropyl)-1-(2-morpholin-4-ylethyl)urea hydrochloride] | 43 |  | 
6 | CC(C)OC(=O)c1cc(NC(=O)N(CCC(c2ccccc2)c2ccccc2)CCN2CCOCC2)ccc1Cl [Example 51, 2-chloro-5-[3-(3,3-diphenylpropyl)-3-(2-morpholin-4-ylethyl)ureido]benzoic acid isopropyl ester hydrochloride] | 13 |  | 
7 | Cl.O=C(Nc1cccc(-c2cnco2)c1)N(CCC(c1ccccc1)c1ccccc1)CCN1CCOCC1 [Example 68, 1-(3,3-diphenylpropyl)-1-(2-morpholin-4-ylethyl)-3-(3-oxazol-5-ylphenyl)urea hydrochloride] | 94 | 67 | 94
8 | O=C(Nc1cccc(-c2ccco2)c1)N(CCC(c1ccccc1)c1ccccc1)CCN1CCOCC1 [Example 76A, 1-(3,3-diphenylpropyl)-3-(3-furan-2-ylphenyl)-1-(2-morpholin-4-ylethyl)urea hydrochloride] | 14 |  | 
9 | CCC(=O)c1cccc(NC(=O)N(CCC(c2ccccc2)c2ccccc2)CCN2CCOCC2)c1 [Example 42] | 69 |  | 

— patent publication US7875609B2, “Urea derivatives, processes for their preparation, their use as medicaments, and pharmaceutical compositions containing them” (Galapagos Sasu, priority 2005, dated 2011)
